Measured values published in patent publication US12595266B2, “Pesticidally active heterocyclic derivatives with sulfur containing substituents” (SYNGENTA CROP PROTECTION AG, priority 2020, dated 2026).

Experiments:
Assay type in all cases: in vivo
[1] = tested on: Bemisia tabaci (Cotton White Fly); test: Activity against Bemisia tabaci (cotton white fly), feeding/contact activity; conditions: foliar, 144 h, application rate of 200 ppm, cotton leaf discs sprayed, adult white flies, 6 days after incubation
Experimental: Example B1: Activity Against Bemisia tabaci (Cotton White Fly) Feeding/Contact Activity
Cotton leaf discs were placed on agar in 24-well microtiter plates and sprayed with aqueous test solutions prepared from 10′000 ppm DMSO stock solutions. After drying the leaf discs were infested with adult white flies. The samples were checked for mortality 6 days after incubation.

[2] = tested on: Chilo suppressalis (Striped Rice Stemborer); test: Activity against Chilo suppressalis (striped rice stemborer); conditions: 144 h, application rate of 200 ppm, artificial diet, L2 larvae, 6 days after infestation, read-out: control (at least one of mortality, anti-feedant effect, growth inhibition)
Experimental: Example B2: Activity Against Chilo suppressalis (Striped Rice Stemborer)
24-well microtiter plates with artificial diet were treated with aqueous test solutions prepared from 10′000 ppm DMSO stock solutions by pipetting. After drying, the plates were infested with L2 larvae (6-8 per well). The samples were assessed for mortality, anti-feeding effect, and growth inhibition in comparison to untreated samples 6 days after infestation. Control of Chilo suppressalis by a test sample is given when at least one of the categories mortality, anti-feedant effect, and growth inhibition is higher than the untreated sample.

[3] = tested on: Diabrotica balteata (Corn Root Worm); test: Activity against Diabrotica balteata (corn root worm); conditions: 96 h, application rate of 200 ppm, maize sprouts sprayed, L2 larvae, 4 days after infestation, read-out: effect in at least one of the two categories (mortality or growth inhibition)
Experimental: Example B3: Activity Against Diabrotica balteata (Corn Root Worm)
Maize sprouts placed onto an agar layer in 24-well microtiter plates were treated with aqueous test solutions prepared from 10′000 ppm DMSO stock solutions by spraying. After drying, the plates were infested with L2 larvae (6 to 10 per well). The samples were assessed for mortality and growth inhibition in comparison to untreated samples 4 days after infestation.

[4] = tested on: Euschistus heros (Neotropical Brown Stink Bug); test: Activity against Euschistus heros (neotropical brown stink bug); conditions: 120 h, application rate of 200 ppm, soybean leaves sprayed, N2 nymphs, 5 days after infestation, read-out: effect in at least one of the two categories (mortality or growth inhibition)
Experimental: Example B4: Activity Against Euschistus heros (Neotropical Brown Stink Bug)
Soybean leaves on agar in 24-well microtiter plates were sprayed with aqueous test solutions prepared from 10′000 ppm DMSO stock solutions. After drying the leaves were infested with N2 nymphs. The samples were assessed for mortality and growth inhibition in comparison to untreated samples 5 days after infestation.

[5] = tested on: Myzus persicae (Green Peach Aphid); test: Activity against Myzus persicae (green peach aphid), feeding/contact activity; conditions: foliar, 144 h, application rate of 200 ppm, sunflower leaf discs sprayed, aphid population of mixed ages, 6 days after infestation
Experimental: Example B6: Activity Against Myzus persicae (Green Peach Aphid) Feeding/Contact Activity
Sunflower leaf discs were placed onto agar in a 24-well microtiter plate and sprayed with aqueous test solutions prepared from 10′000 ppm DMSO stock solutions. After drying, the leaf discs were infested with an aphid population of mixed ages. The samples were assessed for mortality 6 days after infestation.

[6] = tested on: Plutella xylostella (Diamond Back Moth); test: Activity against Plutella xylostella (diamond back moth); conditions: 192 h, application rate of 200 ppm, artificial diet, Plutella eggs, 8 days after infestation, read-out: effect in at least one of the two categories (mortality or growth inhibition)
Experimental: Example B7: Activity Against Plutella xylostella (Diamond Back Moth)
24-well microtiter plates with artificial diet were treated with aqueous test solutions prepared from 10′000 ppm DMSO stock solutions by pipetting. After drying, Plutella eggs were pipetted through a plastic stencil onto a gel blotting paper and the plate was closed with it. The samples were assessed for mortality and growth inhibition in comparison to untreated samples 8 days after infestation.

[7] = tested on: Spodoptera littoralis (Egyptian Cotton Leaf Worm); test: Activity against Spodoptera littoralis (Egyptian cotton leaf worm); conditions: foliar, 72 h, application rate of 200 ppm, cotton leaf discs sprayed, L1 larvae, 3 days after infestation, read-out: control (at least one of mortality, anti-feedant effect, growth inhibition)
Experimental: Example B8: Activity Against Spodoptera littoralis (Egyptian Cotton Leaf Worm)
Cotton leaf discs were placed onto agar in 24-well microtiter plates and sprayed with aqueous test solutions prepared from 10′000 ppm DMSO stock solutions. After drying the leaf discs were infested with five L1 larvae. The samples were assessed for mortality, anti-feeding effect, and growth inhibition in comparison to untreated samples 3 days after infestation. Control of Spodoptera littoralis by a test sample is given when at least one of the categories mortality, anti-feedant effect, and growth inhibition is higher than the untreated sample.

[8] = tested on: Carpocapsa (Cydia) Pomonella (Codling Moth); test: Activity against Carpocapsa (Cydia) pomonella (codling moth), larvicide, feeding/contact; conditions: 336 h, application rate of 12.5 ppm, paraffin-coated diet cubes sprayed, L1 larvae, 14 days after infestation, 26-27° C.
Experimental: Example B10: Activity Against Carpocapsa (Cydia) Pomonella (Codling Moth) Larvicide, Feeding/Contact
Diet cubes coated with paraffin were sprayed with diluted test solutions in an application chamber. After drying off the treated cubes (10 replicates) were infested with 1 L1 larvae. Samples were incubated at 26-27° C. and checked 14 days after infestation for mortality and growth inhibition.

[9] = tested on: Frankliniella occidentalis (Western Flower Thrips); test: Activity against Frankliniella occidentalis (western flower thrips), feeding/contact activity; conditions: foliar, 168 h, application rate of 200 ppm, sunflower leaf discs sprayed, population of mixed ages, 7 days after infestation
Experimental: Example B5: Activity Against Frankliniella occidentalis (Western Flower Thrips) Feeding/Contact Activity
Sunflower leaf discs were placed on agar in 24-well microtiter plates and sprayed with aqueous test solutions prepared from […] stock solutions. After drying the leaf discs were infested with a Frankliniella population of mixed ages. The samples were assessed for mortality 7 days after infestation.

CCS(=O)(=O)c1cc(OC(C)(C)C#N)cnc1N1Cc2cc3c(cc2C1=O)OC(F)(F)O3 [Compound P25, 2-[[6-(2,2-difluoro-7-oxo-5H-[1,3]dioxolo[4,5-f]isoindol-6-yl)-5-ethylsulfonyl-3-pyridyl]oxy]-2-methyl-propanenitrile]
≥ 80%: mortality at 200 ppm [1] | percent control (mortality, anti-feedant effect or growth inhibition) at 200 ppm [2] | percent effect (mortality or growth inhibition) at 200 ppm [3] | percent effect (mortality or growth inhibition) at 200 ppm [4] | mortality at 200 ppm [5] | percent effect (mortality or growth inhibition) at 200 ppm [6] | percent control (mortality, anti-feedant effect or growth inhibition) at 200 ppm [7] | mortality at 12.5 ppm [8]

CCS(=O)(=O)c1cc(C2(C#N)CC2)cnc1N1Cc2cc3c(cc2C1=O)OC(F)(F)O3 [Compound P1, 1-[6-(2,2-difluoro-7-oxo-5H-[1,3]dioxolo[4,5-f]isoindol-6-yl)-5-ethylsulfonyl-3-pyridyl]cyclopropanecarbonitrile]
≥ 80%: mortality at 200 ppm [1] | percent control (mortality, anti-feedant effect or growth inhibition) at 200 ppm [2] | percent effect (mortality or growth inhibition) at 200 ppm [3] | percent effect (mortality or growth inhibition) at 200 ppm [4] | mortality at 200 ppm [5] | percent effect (mortality or growth inhibition) at 200 ppm [6] | percent control (mortality, anti-feedant effect or growth inhibition) at 200 ppm [7] | mortality at 12.5 ppm [8]

CCS(=O)(=O)c1cc(C(C)(C)C#N)cnc1N1Cc2cc3c(cc2C1=O)OC(F)(F)O3 [Compound P22, 2-[6-(2,2-difluoro-7-oxo-5H-[1,3]dioxolo[4,5-f]isoindol-6-yl)-5-ethylsulfonyl-3-pyridyl]-2-methyl-propanenitrile]
≥ 80%: mortality at 200 ppm [1] | percent control (mortality, anti-feedant effect or growth inhibition) at 200 ppm [2] | percent effect (mortality or growth inhibition) at 200 ppm [3] | percent effect (mortality or growth inhibition) at 200 ppm [4] | percent effect (mortality or growth inhibition) at 200 ppm [6] | percent control (mortality, anti-feedant effect or growth inhibition) at 200 ppm [7] | mortality at 12.5 ppm [8]

CCS(=O)(=O)c1c(N2Cc3cc4c(cc3C2=O)OC(F)(F)O4)nc(-c2ccc(C3(C#N)CC3)cc2)n1C [Compound P2, 1-[4-[4-(2,2-difluoro-7-oxo-5H-[1,3]dioxolo[4,5-f]isoindol-6-yl)-5-ethylsulfonyl-1-methyl-imidazol-2-yl]phenyl]cyclopropanecarbonitrile]
≥ 80%: percent control (mortality, anti-feedant effect or growth inhibition) at 200 ppm [2] | percent effect (mortality or growth inhibition) at 200 ppm [3] | percent effect (mortality or growth inhibition) at 200 ppm [4] | mortality at 200 ppm [9] | mortality at 200 ppm [5] | percent effect (mortality or growth inhibition) at 200 ppm [6] | percent control (mortality, anti-feedant effect or growth inhibition) at 200 ppm [7] | mortality at 12.5 ppm [8]
